In patent publication US20060159762A1, “Stable pharmaceutical composition comprising an active substance in the form of solid solution” (priority 2004, published 2006):

Test: Comparative storage stability: total degradation products and related substances by HPLC
Type: physicochemical
Details: for increase of degradation products and related substances relative to the starting analysis, non-formulated active substance versus stable pharmaceutical composition (solid solution): 6 days storage on 60° C.
Procedure: Comparison of the total amount of degradation products and related substances in non-formulated active substance and in the stable pharmaceutical composition according to the present invention comprising the active substance in the form of solid solution is presented by the graph 1. The pharmaceutical composition is prepared as described in example 2. The amount of degradation products and related substances is determined by HPLC method. [drawing]
Comparison of the total amount of degradation products and related substances in non-formulated active substance and in the stable pharmaceutical composition according to the present invention comprising the active substance in the form of solid solution is presented in graph 2. The pharmaceutical composition is prepared as described in example 5. The amount of degradation products and related substances is determined by HPLC method. [drawing] [drawing]

Q: With `COc1ccc2[n-]c([S+]([O-])Cc3ncc(C)c(OC)c3C)nc2c1.COc1ccc2[n-]c([S+]([O-])Cc3ncc(C)c(OC)c3C)nc2c1.[Mg+2]` (stereo not drawn) [esomeprazole magnesium, Esomeprazole magnesium] as the compound, how does the “increase of degradation products and related substances relative to the starting analysis, non-formulated active substance versus stable pharmaceutical composition (solid solution)” value (composition prepared as described in example 2) read?
A: four times higher

Q: What about the “increase of degradation products and related substances relative to the starting analysis, non-formulated active substance versus stable pharmaceutical composition (solid solution)” value (composition prepared as described in example 5) of the same compound?
A: > 10 times

Q: And the “increase of the amount of degradation products and related substances relative to the starting analysis, non-formulated active substance versus stable pharmaceutical composition (solid solution)” value (14 days storage on 40° C., composition prepared as described in example 2)?
A: three times higher
